Test results as given in patent publication US20260240999A1, “METHODS FOR EX VIVO ENRICHMENT AND EXPANSION OF TUMOR REACTIVE T CELLS AND RELATED COMPOSITIONS THEREOF” (H. LEE MOFFITT CANCER CENTER AND RESEARCH INSTITUTE, INC., priority 2022, published 2026).
Entries after “also recorded” stand apart in the source; their conditions may differ. Residues, ends and D or L forms follow the SMILES beside them. *: point of attachment. Cbz = O=C(OCc1ccccc1)*; CH2F = FC*

Assays:
[1] = test system: CRC tumor fragment and SCS cultures; assay: Caspase inhibition in tumor processing; format: cell-based, human
Procedure: Half of cultures contained media additionally supplemented with 2 μM of pan-caspase inhibitor Z-VAD-FMK which was replenished at each media exchange. Cultures were incubated at about 37° C. for a minimum of 18 days with a 50% medium exchange occurring every 2-3 days following culture day 5. Cell counts were performed on day 5 and at each medium exchange using the NC-200 Automated Cell Counter (ChemoMetec).

[2] = test system: PBMC from three healthy donors; assay: T cell expansion with Fas ligand or caspase inhibition, anti-CD3 stimulation; format: cell-based, human; details: OKT3 activation
Procedure: (§1) Cells were then seeded into a 24-well gas permeable cell culture plate at a density of 2.14×10^5 cells/mL (7.5×10^5 cells/cm^2). Cells were activated for 48 hours using 50 ng/ml OKT3, a human anti-CD3 monoclonal antibody, and were additionally treated with agents as described below.
Culture wells were assigned to one of five treatment groups, as follows: (1) a no inhibitor culture control which contained only cellular media as described with no additional apoptotic modulator; (2) 2 μM of the pan-caspase inhibitor Z-VAD-FMK added to the media only on culture day 0 (transient); (3) 2 μM of the pan-caspase inhibitor Z-VAD-FMK added on culture day 0 and additionally replenished at the same concentration with each media exchange (continuous); (4). 500 ng/ml of Fas ligand (FasL) blocking antibody NOK-1 (BioLegend) added to the culture media only on day 0 (transient); or (5) 500 ng/ml of Fas ligand (FasL) blocking antibody NOK-1 (BioLegend) added to the culture media […] replenished each media exchange (continuous inhibition).
Cultures were maintained for at least 13 days with a 50% media exchange every other day beginning on culture day 2. Cell counts and viability were monitored every other day. […]

[3] = test system: PBMC from two healthy donors; assay: T cell expansion with Fas ligand or caspase inhibition, anti-CD3/anti-CD28 stimulation; format: cell-based, human; details: continuous anti-CD3/anti-CD28 activation
Procedure: Cells were then seeded into a 24-well gas permeable cell culture plate at a density of 1.5×10^5 cells/mL (5.0×10^5 cells/cm^2).
Culture wells were assigned to one of two treatment groups, transient or continuous activation. For transient activation, anti-CD3/anti-CD28 paramagnetic beads (Dyanbeads™) were added to the culture media at a ratio of 1 bead per cell starting on culture day 0, and then were removed during media exchange on day 2. For continuous activation, anti-CD3/anti-CD28 paramagnetic beads (Dyanbeads™) were added to the culture media at a ratio of 1 bead per cell starting on culture day 0, and then added again on Day 4, and again on Day 6 at a ratio of 1 bead per cell. The anti-CD3/anti-CD28 paramagnetic beads were not removed on Day 2, 4 or 6.
For both the continuous and transient activation, culture wells were assigned to one of five treatment groups as described above for 10 conditions total per donor.
Cell counts and viability were monitored every other day. When cells reached 3×10^6 cells/ml, 1.5×10^6 cells were sub-cultured into a new well of a 24-well gas permeable culture plate with 7 mL final volume of medium and the culture continued as described above.

[4] = test system: previously expanded human T cells from three healthy donors; assay: Cytokines, modulators and agonist antibodies with IL-2 on T cell number and memory phenotype; format: cell-based
Procedure: PBMC from three healthy donors were activated, expanded, and cryopreserved as described in Example 11. […] As previously described, stimulation of the healthy donor T cells prior to cryopreservation were carried out with anti-CD3 (OKT3) stimulation in order to mimic conditions present in the tumor microenvironment (TME).
Cells were next seeded into gas permeable 100M culture vessels and expanded for 7-14 days to achieve a large bank of T cells, and cryopreserved.
Cells were maintained in culture for 6 days, with a 50% medium exchange occurring at 3 days post culture initiation.
At the end of the culture period for all culture conditions, cells were assessed for cell count and sub-phenotypes of naïve and central memory T cells by flow cytometry by staining with CD45RA and CCR7 (naïve, CD45RA+ CCR7+; “central” memory, CD45RA-CCR7+).

[5] = test system: previously expanded human T cells from three healthy donors; assay: Effect of T cell adjuvants on T cell viability (total viable CD3+ cell count); format: cell-based; details: for viable cell counts: vs DMSO treatment control, irrespective of activation status, 6 days
Procedure: Cells were expanded from PBMC derived from Ficoll gradient separation from three healthy donor's apheresis material. […] Because the studies were carried out in healthy donors, stimulation of the T cells was carried out with anti-CD3 (OKT3) stimulation in order to mimic conditions present in the tumor microenvironment (TME).
Cells were next seeded into gas permeable 100M culture vessels and expanded for 7-14 days to achieve a large bank of T cells, and cryopreserved. […] Half of wells were additionally supplemented with 50 ng/mL OKT3, a human anti-CD3 monoclonal antibody. In total, 15 test adjuvant agents were tested for their impact on cell viability in the presence and absence of anti-CD3 activation (see Table E3). Cells were cultured for 6 days total, including a 50% medium exchange on culture day 3, and monitored for total viable CD3+ cell count.

[6] = test system: T-cells from three healthy donors; assay: Post-stimulation CD4+ and CD8+ activation markers by flow cytometry; format: cell-based, human; details: 50 ng/ml OKT3 vs no OKT3, 48 hours, CD38, CD39, CD134, CD137, CD69, CD90
Procedure: Specific markers of activation on the CD4+ and CD8+ cell populations were measured using flow cytometry over a time course of 3-48 hours. Specifically, the following markers were assessed: CD38 and CD39 (FIG. 12A and FIG. 13A), CD134 and CD137 (FIG. 12B and FIG. 13B), and CD69 and CD90 (FIG. 12C and FIG. 13C).

[7] = test system: cells processed from melanoma tumor fragments; assay: Anti-CD3 stimulation on expansion of tumor-derived cells; format: cell-based, human; details: presence or absence of 50 ng/mL OKT3; 14-31 days
Procedure: Cells processed from melanoma tumor fragments as described in Examples 1 and 2, were cultured in the presence or absence of 50 ng/mL OKT3, a human anti-CD3 monoclonal antibody. Cell cultures were carried out to between 14 and 31 days, such as between 14 and 21 days, in either a conventional 6-well plate or a gas permeable culture plate with RPMI or OpTmizer media. […] About 50% of cellular media was exchanged every other day beginning on the 5th day of culture as described previously. Cells were then counted using the NC-200 Automated Cell Counter (Chemometec).

[8] = test system: PBMC from two healthy donors; assay: Checkpoint modulators and costimulatory agonist antibodies on T cell phenotype; format: cell-based, human
Procedure: as §1, with “5.0×10^5 cells/cm^2.” for “2.14×10^5 cells/mL (7.5×10^5 cells/cm^2).”, “below. Following 48 hours in culture, cells were analyzed for phenotype.” for “below.”
Cells were divided into 6 treatment groups, as follows: Ipilimumab (anti-CTLA4), Pembrolizumab (anti-PD1), Tavolixizumab (anti-TNFRSF4), Urelumab (anti-CD137), and Varlilumab (anti-CD27), as well as a no added agent control. For all test groups, cells in each treatment group were cultured in the presence of the monoclonal antibodies at 0.5, 1, 10, or 20 μg/mL.
None of the tested antibodies appeared to affect the memory differentiation state of the T cells. T cell phenotype was assessed for CD4+ and CD8+ cells independently via flow cytometry for markers of activation OX40, 41BB, CD107a, and PD1. Results are shown in FIG. 38 (CD3+), FIG. 39 (CD4+) and FIG. 40 (CD8+).

[9] = cytokine plus 300 IU/mL IL-2 vs IL-2 alone
[10] = on CD3+, CD4+ and CD8+ T cells, higher concentrations

COC(=O)C[C@H](NC(=O)[C@H](C)NC(=O)[C@@H](NC(=O)OCc1ccccc1)C(C)C)C(=O)CF [Z-VAD-FMK, carbobenzoxy-valyl-alanyl-aspartyl-[O-methyl]-fluoromethylketone] (Cbz-Val-Ala-Asp(OMe)-CH2F)
cell viability ([1]; SCS culture, 2 μM): Cell viability was similarly high | outgrowth of T cells ([1]; SCS culture, 2 μM): outgrowth of T cells was not observed for the SCS conditions | cell viability ([1]; tumor fragment-derived culture, 2 μM): cell viability for this condition was also high | outgrowth of cells (fold expansion, total viable cells) ([1]; tumor fragment-derived culture, 2 μM replenished at each media exchange): outgrowth of cells was superior in the tumor fragment-derived condition containing the pan-caspase inhibitor | cell growth (total cell number) ([2]; continuous inhibition (replenished each media exchange)): showed the greatest cell growth across donors | cell growth (total cell number) ([2]; transient treatment (day 0 only)): grew similarly | total viable cell number and viability ([3]; inhibitor continuous, listed as caspase inhibitor): outperformed the other conditions; also recorded: outperforming the transient condition | total viable cell number and viability ([3]; inhibitor transient): outperformed the other conditions | number of CD3+ cells/mL on Day 6 ([4]; concentrations higher than 0.2 μg/mL, vs IL-2 alone): substantially increased the number of CD3+ cells/mL on Day 6 | percent of naïve and central memory T cells ([4]; vs cultures expanded just with IL-2): had no effect on the percent of naïve and central memory T cells | viable cell counts [5]: consistently higher viable cell counts than the DMSO treatment control

IL-15: recombinant cytokine
percent naïve and central memory T cells at Day 6 ([4]; cytokine plus 300 IU/mL IL-2): measured increase in the percent naïve and central memory T cells | CD3+ cells/mL on Day 6 [4, 9]: increase in CD3+ cells/mL on Day 6 | dose response of cell number ([5]; 62.5 IU/ml-1000 IU/ml): dose dependent response, wherein cell number increased with increasing concentration

IL-21: recombinant cytokine
percent naïve and central memory T cells at Day 6 ([4]; cytokine plus 300 IU/mL IL-2): measured increase in the percent naïve and central memory T cells | CD3+ cells/mL on Day 6 [4, 9]: increase in CD3+ cells/mL on Day 6

OKT3: a human anti-CD3 monoclonal antibody
upregulation of activation markers on CD8+ T cells ([6]; highest for CD38, CD134, CD69): all assessed markers were upregulated to some extent | upregulation of activation markers on CD4+ T cells ([6]; highest for CD38, CD137, CD69): all assessed markers were upregulated to some extent | total cell number and fold expansion [7]: supported T cell expansion, but did not substantially impact total cell number; also recorded: observed to be largely similar

Oxelumab: anti-OX40L antibody
percent naïve and central memory T cells at Day 6 ([4]; antibody plus IL-2 vs IL-2 alone, MK-1248 at highest concentration tested): little effect on the percent of naïve and central memory T cells | CD3+ cells/mL on Day 6 ([4]; highest concentration tested, 50 μg/mL, vs IL-2 alone): increase in CD3+ cells/mL on Day 6 | viable cell counts [5]: consistently higher viable cell counts than the DMSO treatment control

Pembrolizumab: anti-PD1 antibody
PD1 expression ([8]; on CD4 T cells): decreased PD1 expression | viable cell counts [5]: consistently higher viable cell counts than the DMSO treatment control

Urelumab: an agonist CD137 receptor antibody
41BB expression ([8]; on CD4 T cells and CD8+ T cells): promoted 41BB expression

Varlilumab: an agonist anti-CD27 antibody
41BB expression [8, 10]: promoted 41BB and CD107a expression | CD107a expression [8, 10]: promoted 41BB and CD107a expression
